Experimental data published in PubChem BioAssay (NCI).
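These data come from cells grown in 96-well plates and exposed to compound for 48 hours at five concentrations. Abbreviation: GI50, concentration required for 50% inhibition of growth. TGI: concentration producing complete growth inhibition.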

How the values were obtained:
Assay in all cases: growth of human tumour cells (NCI), 48 h
[1] = tested on: DU-145 prostate
[2] = tested on: MDA-MB-231 breast
[3] = tested on: SK-OV-3 ovarian
[4] = tested on: U251 CNS
[5] = tested on: SF-539 CNS
[6] = tested on: HOP-92 NSCLC
[7] = tested on: NCI-H522 lung
[8] = tested on: A498 renal
[9] = tested on: BT-549 breast
[10] = tested on: RXF 393 renal

SMILES	GI50 [1]	TGI [1]	GI50 [2]	TGI [2]	GI50 [3]	TGI [3]	GI50 [4]	TGI [4]	GI50 [5]	TGI [5]	GI50 [6]	TGI [6]	GI50 [7]	TGI [7]	GI50 [8]	TGI [8]	GI50 [9]	TGI [9]	TGI [10]	GI50 [10]
COc1ccc(-n2cc(-c3cc(OC)c(OC)c(OC)c3)nc2SCc2cccc(C#N)c2)cc1OC	> 100 µM	> 100 µM	> 100 µM	> 100 µM	> 100 µM	> 100 µM	> 100 µM	> 100 µM	90.3 µM	> 100 µM	27.8 µM	78.9 µM	90 µM	> 100 µM	> 100 µM	> 100 µM				
CC(C)(C)OC(=O)N(CCCCN(CCCn1c2c(c3ccccc3c1=O)C(=O)c1ccccc1-2)C(=O)OC(C)(C)C)CCCn1c2c(c3ccccc3c1=O)C(=O)c1ccccc1-2	48.1 µM	> 100 µM	13.9 µM	47.2 µM	> 100 µM	> 100 µM	27.2 µM	> 100 µM	8.79 µM	33.1 µM	97 µM	> 100 µM	26.2 µM	> 100 µM			> 100 µM	> 100 µM		
CC(=O)OC1(Sc2ccccc2)CC2[C@H]3COC(C)(C)O[C@H]3CC[C@@]2(C)CC1=O (stereo partly specified)						95.7 µM				95.9 µM		86.1 µM		79.8 µM					> 100 µM	
O=C(n1c2ccccc2c2n[nH]c(=S)nc21)C(F)(F)F						> 100 µM		> 100 µM		> 100 µM		> 100 µM		> 100 µM					> 100 µM	
O=c1[nH]c2nc3ccccc3c(=O)n2nc1Cc1ccccc1						> 100 µM		> 100 µM		> 100 µM				> 100 µM						
CCOC(=O)c1ccc(N=Cc2ccc(N(CCC#N)S(=O)(=O)c3ccccc3)cc2C)cc1						> 100 µM		> 100 µM		> 100 µM				> 100 µM		> 100 µM				
Nc1[nH]nc(Nc2ccccc2)c1-c1nc2ccccc2s1	3.02 µM	11.6 µM	1.59 µM	3.75 µM	4.63 µM	15.7 µM	2.26 µM	5.5 µM	1.68 µM	3.34 µM	1.4 µM	3.77 µM	1.58 µM	3.63 µM	1.69 µM	4.01 µM	1.52 µM	3.34 µM		
O=C1/C(=C/c2ccc(F)cc2)COc2ccc(O)c(O)c21	3.02 µM	43.6 µM	1.43 µM	6.25 µM	4.45 µM	> 100 µM	1.46 µM	4.19 µM	1.28 µM	2.7 µM			0.304 µM	1.24 µM	12.5 µM	28.3 µM	2.96 µM	8.73 µM	3.64 µM	1.85 µM
Cc1nc(-n2nc(-c3ccccc3)cc2-c2ccccc2)sc1C(=O)CC(=O)C(=O)Nc1ccc(Cl)c(Cl)c1						> 100 µM		> 100 µM		> 100 µM				> 100 µM		> 100 µM			> 100 µM	
CC1(Cl)C(=O)NC(=O)N([C@H]2C[C@H](O)[C@@H](CO)O2)C1N=[N+]=[N-] (stereo partly specified)						> 100 µM		> 100 µM		> 100 µM		> 100 µM		> 100 µM		> 100 µM			> 100 µM	
N#CC1=C(N)NC(=O)C(C#N)C12Nc1ccccc1S2 (stereo unspecified)	> 100 µM	> 100 µM	29.8 µM	> 100 µM	66.6 µM	> 100 µM	> 100 µM	> 100 µM	> 100 µM	> 100 µM	74 µM	> 100 µM	19.1 µM	60.5 µM			69.9 µM	> 100 µM	> 100 µM	20.4 µM
N.N.N.N.N#N.N#N.[Cl-].[Os+6]							> 100 µM	> 100 µM	> 100 µM	> 100 µM			> 100 µM	> 100 µM					> 100 µM	> 100 µM
Cc1cccc(NC(=O)c2c(N)[n+]([O-])c3ccccc3[n+]2[O-])c1						63 µM		3.65 µM		16.4 µM		29.5 µM		20 µM		29.8 µM			13.3 µM	
COc1ccc2c(=O)c(-c3cc(OC)c(OC)cc3OC)coc2c1		> 100 µM		> 100 µM		> 44.1 µM		> 38.6 µM		43.1 µM				5.44 µM		> 100 µM		> 100 µM	24.2 µM	
O=C(c1ccccc1)c1nc2c(Cl)ccc(Cl)c2cc1C(Br)Br								2.38 µM		1.76 µM				2.9 µM					4.05 µM	
COC(=O)NC1(NC(=O)OC)NC(=O)c2ccccc2N1		> 100 µM		> 100 µM		> 100 µM				> 100 µM				> 100 µM		> 100 µM		> 100 µM		
CN(C)CCNC(=O)c1ccc2c(c1)oc1cc3ccccc3c(=O)n12			13 µM	27.9 µM	13.8 µM	30.9 µM	15.8 µM	30.6 µM			9.78 µM	38.4 µM					25.9 µM	45.8 µM	36.6 µM	19.6 µM
Cc1nc2ccccc2c(=O)n1/N=C(\N=Nc1ccc(Cl)cc1)c1cccc(-c2ccco2)c1						> 100 µM		> 100 µM		98.4 µM		55.4 µM		54.4 µM		> 100 µM			76.8 µM	
Cn1c(=O)nc2n(-c3ccc(Br)cc3)c3ccccc3nc-2c1=O						> 100 µM		19.9 µM		19.6 µM				18.4 µM		26.9 µM			29 µM	
CCCCC[C@@H]1CCCC2NC(CCCCCO[Si](c3ccccc3)(c3ccccc3)C(C)(C)C)CCC21 (stereo partly specified)						36.8 µM		27.8 µM		29.8 µM		22.8 µM		31.6 µM		31.9 µM			25.4 µM	
Cc1c(C)c2cc3c(=O)c(CCl)coc3c(C)c2oc1=O						> 100 µM		> 100 µM		> 100 µM				> 100 µM		> 100 µM			> 100 µM	
COc1ccc([N+](=O)[O-])c2c(NCCCN(C)C)c(C)c(C)nc12		> 100 µM		> 100 µM		> 100 µM		> 100 µM		> 100 µM		> 100 µM		> 100 µM		> 100 µM		> 100 µM		
